{"source": "paper PMC4695825", "about": "(Pharmaceutics, 2015)", "key": {"[1]": {"set-up": "method as in PMID 20188808", "settings": "400 μm needle length, cited from earlier work"}, "[2]": {"settings": "cited from earlier work"}, "[3]": {"settings": "cited from earlier work; for logP / water solubility: no reference given"}, "[4]": {"set-up": "method as in PMID 24333401", "settings": "nanostructured lipid carrier; cited from earlier work"}, "[5]": {"settings": "mean ± SD, n = 6; for Microneedle cumulative amount after 12 h (Qs): skin treated with 500 μm microneedle roller", "procedure": "Frozen porcine ears were obtained from Animal Technologies, Tyler, TX, USA. Skin pieces were thawed at ambient temperatures and carefully shaved using an electric clipper (Wahl, Sterling, IL, USA). Full thickness skin was prepared by removing the subcutaneous fat from the underlying cartilage. The average thickness of the skin membrane was measured with a Digimatic Micrometer (Mitutoyo, Tokyo, Japan). Skin samples were maintained at −20 °C for storage. Prior to experiments, the skin samples were thawed at room temperature before use.\nIn vitro permeation experiments were conducted using a six-celled, static, vertical Franz diffusion cell system (PermeGear, Hellertown, PA, USA). Each cell contained a top donor compartment and a lower receptor compartment with a magnetic stirrer, sampling port, and water jacket maintained at 37 °C to simulate normal body temperature by Thermo Haake DC10-P5/U heating circulator bath (ThermoFisher Scientific, Waltham, MA, USA). The receptor compartment diffusion area was 1.77 cm^2 with a volume capacity of 12 mL filled with PBS. Skin samples obtained from different pigs were placed between the upper donor chamber and lower receiver chamber of the vertical Franz diffusion cells, which were sealed using high-vacuum grease (Dow Corning, Midland, MA, USA) and a metal clamp. Solid microneedle rollers were used to created microchannels in porcine skin. Full thickness microneedle-treated porcine skins were mounted on three-receptor compartments and untreated porcine skins were placed on the remaining three-receptor compartments to serve as controls, and diffusion experiments for the two drugs were replicated six times (n = 6). The microneedle roller was applied fifteen times to each skin sample to increase the number of microconduits for enhanced transdermal drug delivery. […] The sampling ports were also covered with parafilm to further reduce evaporation. […] Receptor chambers were replenished with an equal volume of fresh, pre-warmed PBS maintained at 37 °C. All samples were stored at 4 °C until analysis by LC–MS. The cumulative amount of each drug permeating the excised full thickness porcine skin was plotted as a function of time. The slope and intercept of the linear portion were derived by linear regression analysis. Steady state flux was calculated from the linear portion of the cumulative amount versus time curve.\nChromatographic separation was carried out on the reverse-phase Agilent Zorbax Eclipse Plus C18 (100 mm × 2.1 mm, 3.5 microns) analytical column, which was protected by a guard column with the same stationary phase (12.5 mm × 4.6 mm, 5 microns) (Agilent Technologies, Palo Alto, CA, USA). The column temperature was set at 40 °C, and the autosampler temperature was set at 4 °C. The mobile phase consisted of 0.1% formic acid in water (solvent A), and 0.1% formic acid in methanol (solvent B). […] A post-run time of 2 min for mobile phase equilibration was used after each sample run. Calibration curve standards were freshly prepared in PBS buffer solution. The MS data were collected in positive electro spray ionization tandem mass spectrometry (ESI MS/MS) mode. Nebulizer temperature was 350 °C, nebulizer pressure was 50 psi, and the drying gas flow rate was 10.0 L/min. Compounds were quantified in positive ESI MS/MS mode by quantifying the specific product ion.\nFlux values were calculated using the steady-state portion of the cumulative amount versus time curves. Six replicates were used for the study."}}, "note": "Counter-ions that a name gives are not always drawn. Like-named read-outs stand apart in the source and are kept apart here."}
{"smiles": "Nc1nc2c(ncn2COCCO)c(=O)[nH]1", "note": "[acyclovir]", "values": [{"measurement": "Flux enhancement after microneedle array pretreatment", "setting": "[1]; 2000 needles/cm^2", "value": "significant enhancement"}, {"measurement": "Flux enhancement after microneedle array pretreatment", "setting": "[1]; 5625 needle/cm^2", "value": "lower enhancement"}]}
{"smiles": "NC12CC3CC(CC(C3)C1)C2", "note": "[amantadine hydrochloride, Amantadine hydrochloride]", "values": [{"measurement": "pharmacokinetic half-life", "setting": "[2]", "value": 10, "unit": "h"}, {"measurement": "partition coefficient", "setting": "[3]", "value": 2.44}, {"measurement": "logP", "setting": "[3]", "value": 2.4}, {"measurement": "water solubility", "setting": "[3]", "value": 50, "unit": "mg/mL"}]}
{"smiles": "Cc1cc2c(s1)Nc1ccccc1N=C2N1CCN(C)CC1", "note": "[olanzapine]", "values": [{"measurement": "Change in transdermal permeation rate after microneedle device pretreatment", "setting": "[4]", "value": "slight but not statistically significant increase"}]}
{"smiles": "CCCN[C@H]1CCc2nc(N)sc2C1", "note": "[pramipexole dihydrochloride]", "values": [{"measurement": "pharmacokinetic half-life", "setting": "[2]", "value": "6 to 8", "unit": "h"}, {"measurement": "logP", "setting": "[3]", "value": 1.2}, {"measurement": "water solubility", "setting": "[3]", "value": "> 20", "unit": "mg/mL"}, {"measurement": "octanolphosphate buffer partition coefficient", "setting": "[3]; pH 7.4", "value": 0.135}, {"measurement": "Microneedle-facilitated transdermal flux", "setting": "[5]; full thickness porcine ear skin treated with 500 μm stainless steel microneedle roller, 37 °C, donor amantadine ~50 mg/mL or pramipexole ~1 mg/mL, steady state", "value": "134.04 ± 0.98", "unit": "μg/cm^2/h"}, {"measurement": "Microneedle cumulative amount after 12 h (Qs)", "setting": "[5]; 12 h, listed as Pramipexole", "value": "1583.43 ± 72.99", "unit": "μg/cm^2"}, {"measurement": "Microneedle cumulative amount after 12 h (Qs)", "setting": "[5]; 12 h, listed as pramipexole", "value": 1583.43, "unit": "μg/cm^2"}, {"measurement": "Passive (control) transdermal flux", "setting": "[5]; untreated full thickness porcine ear skin, 37 °C, donor amantadine ~50 mg/mL or pramipexole ~1 mg/mL, steady state", "value": "134.83 ± 13.66", "unit": "μg/cm^2/h"}, {"measurement": "Passive (control) cumulative amount after 12 h (Qs)", "setting": "[5]; untreated full thickness porcine ear skin, 12 h", "value": "1607.86 ± 35.77", "unit": "μg/cm^2"}]}
